# Results as given in US4150146A, “Process for the preparation of unsymmetrically 1,3-disubstituted nitroso ureas” (priority 1976, dated 1979).
# Legend:
# rat leukaemia L 5222 = experiment: Chemotherapeutic activity against rat leukaemia L 5222 (cures); type: in vivo; details: for L 5222 cures %: 50% of the acute LD50 i.p., treatment on day 6 after transplantation of 5 × 10^6 cells, rats surviving 60 days after treatment considered cured
# From the text: (§1) The chemotherapeutic activity of Compounds 1 to 8 against rat leukaemia L 5222 and s.c. Walker carcinosarcoma is shown in the accompanying Table II, together with that of still another BCNU analog and of BCNU itself.
# (§2) The chemotherapeutic activity of Compounds 1 to 8,
# (§3) another analog of BCNU, and BCNU against rat leukaemia
# (§4) L 5222 and s.c. Walker carcinosarcoma
# (§5) ^1 50% of the acute LD50 were given i.p.
# ^2 Treatment on day 6 after transplantation of 5 × 10^6
# ^3 Rats surviving 60 days after treatment were considered cured.
# [1] = test system: s.c. Walker carcinosarcoma; experiment: Chemotherapeutic activity against s.c. Walker carcinosarcoma (tumor weight inhibition); type: in vivo, rat (Sprague Dawley); details: for s.c. Walker T.W.I.% (tumor weight inhibition): 50% of the acute LD50 i.p., treatment on day 4 after transplantation, T.W.I. on day 8, 10 Sprague Dawley rats per group
# From the text: as §1, §2, §3, §4, §5
# ^4 Treatment on day 4 after transplantation. Each group consisted of
# 10 Sprague Dawley vats.
# ^5 T.W.I. corresponds to tumor weight inhibition in % on day 8,?
# Stability = type: physicochemical; details: liquid compounds
# [2] = test system: autochthonic DMBA-induced mammary carcinoma; experiment: Animal test against autochthonic DMBA-induced mammary carcinoma; type: in vivo, rat; details: in words; for activity against autochthonic DMBA-induced mammary carcinoma relative to Adriamycin / BCNU: comparison with Adriamycin (and BCNU)
# [3] = Solubility in water (or tissue fluids); type: physicochemical; details: comparison with BCNU, in words
# Delayed toxicity = type: in vivo; details: contrary to BCNU; preliminary
SMILES,L 5222 cures % (rat leukaemia L 5222) [%],s.c. Walker T.W.I.% (tumor weight inhibition) [1] [%],also measured
"Cc1ccc(NC(=O)N(CCCl)N=O)cc1NC(=O)N(CCCl)N=O [1,1'-(4-methyl-m-phenylene)bis-CNU]",0,35,–
"O=NN(CCCl)C(=O)NCCCl [BCNU, 1,3-bis-(2-chloroethyl)-1-nitroso urea, reference compound]",70,83,–
"O=NN(CCCl)C(=O)NCCNC(=O)N(CCCl)N=O [Compound 1, 1,1'-ethylenebis-CNU]",60,75,–
"O=NN(CCCl)C(=O)NCCCNC(=O)N(CCCl)N=O [Compound 2, 1,1'-propylenebis-CNU]",60,72,–
"O=NN(CCCl)C(=O)NCCCCNC(=O)N(CCCl)N=O [Compound 3, 1,1'-tetramethylenebis-CNU]",75,77,–
"O=NN(CCCl)C(=O)NCCCCCNC(=O)N(CCCl)N=O [Compound 4, 1,1'-pentamethylenebis-CNU]",30,68,–
"O=NN(CCCl)C(=O)NCCCCCCNC(=O)N(CCCl)N=O [Compound 5, 1,1'-hexamethylenebis-CNU]",50,70,–
"O=NN(CCCl)C(=O)NCCO [Compound 6, 1-(2-hydroxyethyl)-3-(2-chloroethyl)-3-nitroso urea]",90,85,"chemotherapeutic activity against rat leukaemia L 5222 and s.c. Walker carcinosarcoma (in words) (rat leukaemia L 5222; summary of Table II, both tumor models): outstanding activity"
"O=NN(CCCl)C(=O)NCCCO [Compound 7, 1-(3-hydroxypropyl)-CNU]",10,0,stability (for elementary analysis) (Stability): not stable enough for elementary analysis
"O=NN(CCCl)C(=O)NCCCCO [Compound 8, 1-(4-hydroxybutyl)-CNU]",5,4,stability (for elementary analysis) (Stability): not stable enough for elementary analysis
CS(=O)(=O)OCCNC(=O)N(CCCl)N=O [Compound 9],–,–,"activity against rat autochthonic DMBA-induced mammary carcinoma ([2]; animal test): excellent activity; activity against autochthonic DMBA-induced mammary carcinoma relative to Adriamycin / BCNU [2]: significantly exceeding that of ""Adriamycin"""
"NC(=O)CNC(=O)N(CCCl)N=O [Compound 10, 2-(3-(2-chloroethyl))-3-nitrosoureido acetamide]",–,–,"activity against s.c. Walker carcinosarcoma relative to BCNU ([1]; preliminary animal test, comparison with BCNU): same activity against s.c. Walker carcinosarcoma as BCNU; activity against autochthonic DMBA-induced mammary carcinoma relative to Adriamycin / BCNU [2]: better activity than ""Adriamycin"" or BCNU; solubility in water relative to BCNU [3]: better solubility in water; delayed toxicity (Delayed toxicity): little delayed toxicity"
